From ChEMBL document CHEMBL1156355, “Phenolic compounds from Miconia myriantha inhibiting Candida aspartic proteases” (J Nat Prod, 2001) come the findings set out here.

As usually defined, the IC50 is the concentration that inhibits the measured activity by half. Lower therefore signals inhibition by little substance.

A short description of test [1]: Inhibition of Candida albicans ATCC 10231 secreted aspartic protease.
A short description of test [2]: Inhibition of pepsin.

Each structure is given as a SMILES string.

For `COc1ccc([C@@H]2CC(=O)c3c(O)c(C)c(O[C@@H]4O[C@@H]5COC(=O)c6cc(O)c(O)c(O)c6-c6c(cc(O)c(O)c6O)C(=O)O[C@H]5[C@H](O)[C@H]4O)c(C)c3O2)cc1`, the IC50 in test [1] came to 8.4 µM; in test [2], 66.6 µM.
On the same counts, the results for `O=c1oc2c(O)c(O)cc3c(=O)oc4c(O)c(O)cc1c4c23` [ELLAGIC ACID] are 10.5 µM and 37.1 µM.
For `CC(C)CC(=O)N[C@H](C(=O)N[C@H](C(=O)N[C@@H](CC(C)C)[C@@H](O)CC(=O)N[C@@H](C)C(=O)N[C@@H](CC(C)C)[C@@H](O)CC(=O)O)C(C)C)C(C)C` [PEPSTATIN] the same measures were 0.016 µM and 0.31 µM.
